Laboratory results taken from patent US8604055B2, “Substituted benzylamino quinolines as cholesterol ester-transfer protein inhibitors” (Dr. Reddy's Laboratories Ltd., priority 2004, dated 2013).

Biological target: T1, Recombinant CETP enzyme (Homo sapiens, UniProt P11597)
T1 construct: purchased Cardiovascular Targets
T1 sequence (P11597 18-493): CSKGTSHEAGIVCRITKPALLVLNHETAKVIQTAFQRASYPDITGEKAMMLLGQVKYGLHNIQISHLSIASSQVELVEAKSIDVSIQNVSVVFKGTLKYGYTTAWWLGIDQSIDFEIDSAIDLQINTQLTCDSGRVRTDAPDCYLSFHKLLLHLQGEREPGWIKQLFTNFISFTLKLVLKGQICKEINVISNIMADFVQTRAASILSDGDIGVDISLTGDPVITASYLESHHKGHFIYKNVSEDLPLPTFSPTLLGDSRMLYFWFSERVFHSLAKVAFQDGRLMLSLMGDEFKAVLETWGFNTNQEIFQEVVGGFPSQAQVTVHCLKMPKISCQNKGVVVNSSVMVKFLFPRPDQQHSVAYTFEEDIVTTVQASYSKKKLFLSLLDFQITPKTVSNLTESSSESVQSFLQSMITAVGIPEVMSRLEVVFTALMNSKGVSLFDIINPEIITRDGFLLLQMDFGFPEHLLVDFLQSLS
Experiment: In vitro fluorescence-based CETP inhibition assay (BODIPY-CE transfer from donor to acceptor microemulsions)
Assay type: biochemical
Conditions: recombinant CETP 0.14 ng/μl; transfer of fluorescent cholesteryl ester monitored over 2 hours; vs DMSO controls
Method: An in vitro fluorescence-based assay to identify CETP inhibitors was developed from modifications of the protocols outlined in Bisgaier et al., J Lipid Res., 34(9): 1625-34 (1993) and Epps et al., Chem Phys Lipids., 77(1): 51-63 (1995). Acceptor and donor lipid microemulsions were prepared according to Bisgaier et al., 1993, except that the buffer was prepared with 0.67 ug/mL human HDL (Calbiochem). Donor microemulsions contained the fluorescent cholesteryl ester analog BODIPY-CE (Molecular Probes), characterized by excitation and emission maxima at 503 nm and 518 nm, respectively. The CETP-mediated transfer of fluorescent cholesteryl ester to acceptor particles was monitored over a 2-hour time period using the FAM filter set (excitation 492 nm, emission 516 nm) in an MX3000P fluorescent plate reader (Stratagene). Recombinant CETP enzyme (Cardiovascular Targets) was used at 0.14 ng/μl, final concentration, to achieve lipid transfer. CETP inhibition by compounds was compared to DMSO controlsand graphed as a percentage of the control CETP activity over 2 hours. The IC50 curves for CETP inhibition were generated from the activity profiles. Active compounds were also tested for CETP inhibition as above, but in the presence of 3% human serum albumin, fraction V (Calbiochem).

Compound	IC50
CCN(CC1CCCC1)c1nc2ccccc2cc1CN(Cc1cc(C(F)(F)F)cc(C(F)(F)F)c1)c1nc(C)co1 [Example 67]	≤ 1 µM
CCN(CC1CCCC1)c1nc2ccc(C)cc2cc1CN(Cc1cc(C(F)(F)F)cc(C(F)(F)F)c1)C(=O)OC [Example 46, (3,5-bis-trifluoromethyl-benzyl)-[2-(cyclopentylmethyl-ethyl-amino)-6-methyl-quinolin-3-ylmethyl]-carbamic acid methyl ester]	≤ 5 µM
CCN(CC1CCCC1)c1nc2c(cc1CN(Cc1cc(F)cc(C(F)(F)F)c1)c1nnn(C)n1)c(C)nn2C [Example 20, cyclopentylmethyl-ethyl-(5-{[(3-fluoro-5-trifluoromethyl-benzyl)-(2-methyl-2H-tetrazol-5-yl)-amino]-methyl}-1,3-dimethyl-1H-pyrazolo[3,4-b]pyridin-6-yl)-amine]	≤ 1 µM
CCN(CC1CCC1)c1nc2ccccc2cc1CN(Cc1cc(C(F)(F)F)cc(C(F)(F)F)c1)c1nnn(C)n1 [Example 56]	≤ 1 µM
CCN(CC1CCCC1)c1nc2ccccc2cc1CN(Cc1cc(C(F)(F)F)cc(C(F)(F)F)c1)C(=S)SC [Example 48, (3,5-bis-trifluoromethyl-benzyl)[2-(cyclopentylmethyl-ethyl-amino)-quinolin-3-ylmethyl]-dithiocarbamic acid methyl ester]	≤ 5 µM
CCN(CC1CCC1)c1nc2c(cnn2C)cc1CN(Cc1cc(C(F)(F)F)cc(C(F)(F)F)c1)c1nnn(C)n1 [Example 12, (5-{[(3,5-bis-trifluoromethyl-benzyl)-(2-methyl-2H-tetrazol-5-yl)-amino]-methyl}-1-methyl-1H-pyrazolo[3,4-b]pyridin-6-yl)-cyclobutylmethyl-ethyl-amine]	≤ 1 µM
Cc1cccc2cc(CN(Cc3cc(C(F)(F)F)cc(C(F)(F)F)c3)c3nnn(CCNC(=O)OC(C)(C)C)n3)c(N(CC3CC3)CC3CC3)nc12 [Example 86, (2-{5-[[2-(bis-cyclopropylmethyl-amino)-8-methyl-quinolin-3-ylmethyl]-(3,5-bis-trifluoromethyl-benzyl)-amino]-tetrazol-2-yl}-ethyl)-carbamic acid tert-butyl ester]	≤ 1 µM
Cn1nnc(N(Cc2cc(C(F)(F)F)cc(C(F)(F)F)c2)Cc2cc3cccc(Cl)c3nc2N(CC2CC2)CC2CC2)n1 [Example 90]	≤ 1 µM
CCN(CC1CCCC1)c1nc2c(cc1CN(Cc1cc(C(F)(F)F)cc(C(F)(F)F)c1)c1nnn(C)n1)c(C)nn2C [Example 24, (5-{[(3,5-bis-trifluoromethyl-benzyl)-(2-methyl-2H-tetrazol-5-yl)-amino]-methyl}-1,3-dimethyl-1H-pyrazolo[3,4-b]pyridin-6-yl)-cyclopentylmethyl-ethyl-amine]	≤ 1 µM
Cc1nn(C)c2nc(N(CC3CC3)CC3CC3)c(CN(Cc3cc(Cl)cc(Cl)c3)c3nnn(C)n3)cc12 [Example 21, bis-cyclopropylmethyl-(5-{[(3,5-dichlorobenzyl)-(2-methyl-2H-tetrazol-5-yl)-amino]-methyl}-1,3-dimethyl-1H-pyrazolo[3,4-b]pyridin-6-yl)-amine]	≤ 1 µM
CCN(CC1CCCC1)c1nc2ccccc2cc1CN(Cc1cc(C(F)(F)F)cc(C(F)(F)F)c1)Cc1nnn(C)n1 [Example 70, (3-{[(3,5-bis-trifluoromethyl-benzyl)-(2-methyl-2H-tetrazol-5-ylmethyl)-amino]-methyl}-quinolin-2-yl)-cyclopentylmethyl-ethyl-amine]	≤ 5 µM
CCN(CC1CCCC1)c1nc2c(cc1CN(Cc1cc(C(F)(F)F)cc(C(F)(F)F)c1)C(=O)OC)CCCC2 [Example 74]	≤ 1 µM
CCCCN(CC)c1nc2ccccc2cc1CN(Cc1cc(C(F)(F)F)cc(C(F)(F)F)c1)C(=O)OCC [Example 41, (3,5-bis-trifluoromethyl-benzyl)-[2-(butyl-ethyl-amino)-quinolin-3-ylmethyl]-carbamic acid ethyl ester]	≤ 5 µM
Cc1cccc2cc(CN(Cc3cc(C(F)(F)F)cc(C(F)(F)F)c3)c3nnn(CCO)n3)c(N(CC3CC3)CC3CC3)nc12 [Example 93, 2-{5-[[2-(bis-cyclopropylmethyl-amino)-8-methyl-quinoline-3-ylmethyl]-(3,5-bistrifluoromethyl-benzyl)-amino]-tetrazol-2-yl}-ethanol]	≤ 1 µM
CCN(CC1CCC1)c1nc2ccccc2cc1CN(Cc1cc(C(F)(F)F)cc(C(F)(F)F)c1)c1cc(C)on1 [Example 65, (3-{[3,5-bis-trifluoromethyl-benzyl-(5-methyl-isoxazol-3-yl)-amino]-methyl}-quinolin-2-yl)-cyclobutylmethyl-ethyl-amine]	≤ 1 µM
CCN(CC1CC1)c1nc2c(cc1CN(Cc1cc(C(F)(F)F)cc(C(F)(F)F)c1)c1nnn(C)n1)c(C)nn2C [Example 3, (5-{[(3,5-bis-trifluoromethyl-benzyl)-(2-methyl-2H-tetrazole-5-yl)-amino]-methyl}-1,3-dimethyl-1H-pyrazolo[3,4-b]pyridin-6-yl)-cyclopropylmethyl-ethyl-amine]	≤ 1 µM
CCN(CC1CCC1)c1nc2ccccc2cc1CN(Cc1cc(C(F)(F)F)cc(C(F)(F)F)c1)C(=O)OC [Example 45]	≤ 5 µM
CCN(CC1CCCC1)c1nc2onc(C)c2cc1CN(Cc1cc(C(F)(F)F)cc(C(F)(F)F)c1)c1nnn(C)n1 [Example 33, (5-{[(3,5-bis-trifluoromethyl-benzyl)-(2-methyl-2H-tetrazol-5-yl)-amino]-methyl}-3-methyl-isoxazolo[5,4-b]pyridine-6-yl)-cyclopentylmethyl-ethyl-amine]	≤ 1 µM
CCN(CC1CC1)c1nc2ccccc2cc1CN(Cc1cc(C(F)(F)F)cc(C(F)(F)F)c1)c1nnn(C)n1 [Example 55]	≤ 1 µM
CCN(CC1CCCC1)c1nc2c(cc1CN(Cc1cc(C(F)(F)F)cc(C(F)(F)F)c1)C(=O)OC)CCC2 [Example 75, (3,5-bis-trifluoromethyl-benzyl)-[2-(cyclopentylmethyl-ethyl-amino)-6,7-dihydro-5H-[1]pyridin-3-ylmethyl]-carbamic acid methyl ester]	≤ 5 µM
CCN(CC1CC1)c1nc2ccccc2cc1CN(Cc1cc(C(F)(F)F)cc(C(F)(F)F)c1)C(=O)OC [Example 44, (3,5-bis-trifluoromethyl-benzyl)-[2-(cyclopropylmethyl-ethyl-amino)-quinolin-3-ylmethyl]-carbamic acid methyl ester]	≤ 5 µM
CCN(CC1CCC1)c1nc2c(cc1CN(Cc1cc(C(F)(F)F)cc(C(F)(F)F)c1)c1cc(C)on1)c(C)nn2C [Example 10, (5-{[(3,5-bis-trifluoromethyl-benzyl)-(5-methyl-isoxazol-3-yl)-amino]-methyl}-1,3-dimethyl-1H-pyrazolo[3,4-b]pyridin-6-yl)-cyclobutylmethyl-ethyl-amine]	≤ 1 µM
CCCCN(CC)c1ncccc1CN(Cc1cc(C(F)(F)F)cc(C(F)(F)F)c1)c1nnn(C)n1 [Example 73]	≤ 5 µM
CCN(CC1CCCC1)c1nc2ccccc2cc1CN(Cc1cc(C(F)(F)F)cc(C(F)(F)F)c1)C1=NCCO1 [Example 68, (3-{[(3,5-bis-trifluoromethyl-benzyl)-(4,5-dihydro-oxazol-2-yl)-amino]-methyl}-quinolin-2-yl)-cyclopentylmethyl-ethyl-amine]	≤ 5 µM
CCN(CC1CCCC1)c1nc2c(cc1CN(Cc1cc(F)cc(F)c1)c1nnn(C)n1)c(C)nn2C [Example 18, cyclopentylmethyl-ethyl-(5-{[(3,5-difluoro-benzyl)-(2-methyl-2H-tetrazol-5-yl)-amino]-methyl}-1,3-dimethyl-1H-pyrazolo[3,4-b]pyridine-6-yl)-amine]	≤ 1 µM
CCCN(CC1CCCC1)c1nc2ccccc2cc1CN(Cc1cc(C(F)(F)F)cc(C(F)(F)F)c1)C(=O)OCC [Example 43, (3,5-bis-trifluoromethyl-benzyl)-[2-(cyclopentylmethyl-propyl-amino)-quinolin-3-ylmethyl]-carbamic acid ethyl ester]	≤ 5 µM
CCCCN(CC)c1nc2ccccc2cc1CN(Cc1cc(C(F)(F)F)cc(C(F)(F)F)c1)c1nnn(C)n1 [Example 54]	≤ 1 µM

System: not given
Experiment: not given
Conditions: not given

Compound	melting point
CCCSc1nc2c(C)cccc2cc1CN(Cc1cc(C(F)(F)F)cc(C(F)(F)F)c1)C(=O)OCC [Example 135, (3,5-bis-trifluoromethyl-benzyl)-(8-methyl-2-propylsulfanyl-quinolin-3-ylmethyl)-carbamic acid ethyl ester]	42 °C
CCCS(=O)(=O)c1nc2c(C)cccc2cc1CN(Cc1cc(C(F)(F)F)cc(C(F)(F)F)c1)C(=O)OCC [Example 136, (3,5-bis-trifluoromethyl-benzyl)-[8-methyl-2-(propane-1-sulfonyl)-quinolin-3-ylmethyl]-carbamic acid ethyl ester]	98 °C
